Values quoted from earlier work as cited in publication PMC8177746 (ACS applied materials & interfaces, 2020).

Test system: Staphylococcus aureus
Conditions: ref 14 (Lai et al.)

In the case of ILGPVLGLVSDTLDDVLGIL-NH2 [MH5], the MIC is given as 80 µM.
